Source: patent publication US20250163119A1, “COMPOUNDS FOR THE TREATMENT OF DIABETES OR OBESITY” (Eli Lilly and Company, priority 2023, published 2025)
Several values for one entry are separate records, joined by “and”; a condition that tells them apart may be missing. Equal values may be shown once. Read-outs that look alike come from different tables or passages of the source. Blank lines part the entries; values can stand above or below the substance they belong to. *1 amine or outer side, *2 acyl side, *3 side chain or, on linkers, in order; H or OH if unused. Side-chain parts run from the residue outwards. [ ]: non-standard residue; d: D form. The star is where a group is joined. C20 diacid = O=C(O)CCCCCCCCCCCCCCCCCCC(=O)*; γGlu = O=C(O)[C@H](CCC(=O)[*:2])N[*:1]; εLys = N[C@@H](CCCCN[*:1])C(=O)[*:2]; pGlu = O=C1CC[C@@H](C(=O)O)N1; αMeL = CC(C)C[C@](C)(N)C(=O)O; AEEA = NCCOCCOCC(=O)O; Aib = CC(C)(N)C(=O)O

Columns and labels:
[1] = system: MHC-II presented peptides on human dendritic cells; assay: MAPPS assay (MHC-Associated Peptide Proteomics); type: cell-based; conditions: for peptides displayed on MHC-II complexes: human dendritic cells from normal donors; for immunogenicity compared with SEQ ID NO:54: in the MAPPs assay and/or the T cell proliferation assay
Method in brief: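 Peptides eluted from anti-MHC-II immunoprecipitates of day-6 DC lysates were sequenced by MS, mapped onto the parent test molecule, and scored as percentage of donors presenting each region. DCs derived from donor CD14+ cells (IL-4, GM-CSF) received test molecules on day 4, then LPS maturation on day 5.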

[2] = system: pre-existing antibodies (ADA) in treatment-naive normal human serum; assay: Pre-existing reactivity (ACE assay format); type: binding; conditions: ACE assay format
Description: This assay assessed the presence of pre-existing antibodies (ADA) against the tested molecules in treatment-naive normal human serum (NHS). Diluted NHS was incubated overnight on a Pierce Streptavidin plate coated with biotinylated tested molecules. On the following day, the captured binding proteins were acid eluted, hard-coated to a Mesoscale (MSD) plate, and detected with a combination of biotin-labeled molecule and ruthenium-labeled streptavidin. If anti-drug antibodies were present, they would bind the labeled drug and the resulting signal was referred to as Tier 1 signal (expressed as electrochemiluminescence). […] The presence of pre-existing anti-drug antibodies was expressed as magnitude of the 90th percentile of Tier 2 inhibition. The 90th percentile of Tier 2 inhibition is a statistical tool to assess the magnitude of specificity of Tier 1 reactivity. This 90th percentile was used to rank molecules in terms of ADA risk.

[3] = Pharmacokinetics in CD-1 mice, single 100 nmol/kg subcutaneous dose; type: in vivo; conditions: mouse, plasma, sc, male CD-1 mice, mean
Description: (§1) Plasma concentrations of compounds were determined by LC/MS methods. For each assay, the compound and an internal standard (IS), were extracted from 100% mouse, rat, pig, or monkey plasma (70 μL) using Isopropanol-Methanol. Two distinct layers were formed upon centrifugation with the compound and the IS located in the supernatant layer. An aliquot of the supernatant (150 μL) was transferred to a Waters Sirocco Protein Precipitation Plate. The supernatant was eluted using a positive pressure manifold. The supernatant was mixed with 100-2 Water-Formic acid (400 μL) in a pretreated Sep-Pak tC18 SPE plate and eluted to waste. The peptide and IS were eluted with Acetonitrile-Formic acid (100 μL) in 2 steps (50 μL each step). The elution (40 μL) from SPE plate was mixed with diluent solution (1.875 μL 5× invitrosol and 3.125 μL 1% formic acid in water, 80 μL). A final sample (10 μl) was loaded onto a Xselect CSH C18 IS column (3.5 μm 2.1×20 mm). The column effluent was directed into a Thermo Fisher Scientific Orbitrap (Exploris 240) mass spectrometer for detection and quantitation.
Male CD-1 mice were administered a single subcutaneous dose (100 nmol/kg) of compound in 40 mM Tris-HCl 5% D-mannitol (pH 8) at a volume of 5 mL/kg. Blood was collected at 6, 24, 48, 96, 168, 240, 288, and 336 hours postdose for pharmacokinetic characterization.

CD4+ T cells = assay: T cell proliferation assay; type: cell-based, human; conditions: responding donors / donors tested
Description: This assay assessed the ability of tested antibodies or tested MAPPS peptides to activate CD4+ T cells by inducing cellular proliferation. CD8+ T cell depleted PBMC's were prepared and labeled with CFSE. Each sample was tested with media control, keyhole limpet haemocyanin (KLH; positive clinical benchmark control), tested antibodies, or tested MAPPS peptides. Cultures were incubated for 7 days. On day 7, samples were analyzed by flow cytometry.

[4] = Pharmacokinetics in Cynomolgus monkeys, single subcutaneous or intravenous dose; type: in vivo
Description: as §1
Male and female Cynomolgus monkeys were administered a single subcutaneous dose or intravenous dose (183 to 190 nmol/kg) of compound in 40 mM Tris-HCl 5% D-mannitol (pH 8) at a volume of 0.5 mL/kg. Blood was collected from each animal at 0.5, 3, 6, 24, 48, 72, 96, 168, 240, 336, 408, and 504 hours postdose for pharmacokinetic characterization.

[5] = donors displaying MHC-II peptides / donors tested
[6] = percentage of donors displaying MHC-II peptides
[7] = both sexes, cynomolgus monkey, plasma, iv, 190 nmol/kg, single intravenous dose 190 nmol/kg, Mean
[8] = both sexes, cynomolgus monkey, plasma, iv, 190 nmol/kg, single intravenous dose 190 nmol/kg, individual animal
[9] = single intravenous dose 190 nmol/kg, individual animal
[10] = single subcutaneous dose 190 nmol/kg, individual animal
[11] = both sexes, cynomolgus monkey, plasma, iv, 183 nmol/kg, single intravenous dose 183 nmol/kg, Mean
[12] = both sexes, cynomolgus monkey, plasma, iv, 183 nmol/kg, single intravenous dose 183 nmol/kg, individual animal
[13] = single intravenous dose 183 nmol/kg, individual animal
[14] = single subcutaneous dose 183 nmol/kg, individual animal

- MAPPS Assay >10 donors with diverse MHC [1, 5]: 0/10
- MAPPS Assay >10 donors with diverse MHC [1, 6]: 0%
- Pre-existing Reactivity 90th percentile T2 inhibition >50 donors [2]: 4.5%
- AUC0-inf [3]: 25 µM·h
- CL/F [3]: 96.2 mL/day/kg
- Cmax [3]: 366 nM
- Tmax [3]: 24 h
- half-life [3]: 32.5 h
- clearance [4, 7]: 11.5 mL/day/kg
- half-life [4, 7]: 113 h
- clearance [4, 8]: 12.8 mL/day/kg
- half-life [4, 8]: 100 h
- half-life ([4]; both sexes, cynomolgus monkey, plasma, sc, 190 nmol/kg, single subcutaneous dose 190 nmol/kg, Mean): 199 h
- CL/F ([4]; both sexes, cynomolgus monkey, plasma, sc, 190 nmol/kg, single subcutaneous dose 190 nmol/kg, Mean, read-out: CL/F (converted)): 12.3 mL/day/kg
- Tmax ([4]; both sexes, cynomolgus monkey, plasma, sc, 190 nmol/kg, single subcutaneous dose 190 nmol/kg, Mean, read-out: Tmax): 24 h
- half-life ([4]; both sexes, cynomolgus monkey, plasma, sc, 190 nmol/kg, single subcutaneous dose 190 nmol/kg, individual animal): 184 h
- CL/F ([4]; both sexes, cynomolgus monkey, plasma, sc, 190 nmol/kg, single subcutaneous dose 190 nmol/kg, individual animal, read-out: CL/F (converted)): 14.4 mL/day/kg
- Tmax ([4]; both sexes, cynomolgus monkey, plasma, sc, 190 nmol/kg, single subcutaneous dose 190 nmol/kg, individual animal, read-out: Tmax): 24 h
- AUC0-inf ([4]; both sexes, cynomolgus monkey, plasma, sc, single subcutaneous dose 190 nmol/kg, Mean, read-out: AUC0-inf): 458 µM·h
- Cmax ([4]; both sexes, cynomolgus monkey, plasma, sc, single subcutaneous dose 190 nmol/kg, Mean, read-out: Cmax): 1610 nM
- AUC0-inf ([4]; both sexes, cynomolgus monkey, plasma, single intravenous dose 190 nmol/kg, Mean, read-out: AUC0-inf): 402 µM·h
- C0 ([4]; both sexes, cynomolgus monkey, plasma, single intravenous dose 190 nmol/kg, Mean, read-out: C0): 3500 nM
- AUC0-inf [4, 9]: 355 µM·h and 449 µM·h
- C0 [4, 9]: 3040 nM and 3960 nM
- CL [4, 9]: 10.1 mL/day/kg
- T1/2 [4, 9]: 126 h
- AUC0-inf [4, 10]: 364 µM·h and 551 µM·h
- CL/F [4, 10]: 10.2 mL/day/kg
- Cmax [4, 10]: 1540 nM and 1680 nM
- T1/2 [4, 10]: 214 h
Substance: {C20 diacid-εLys-AEEA-γGlu}-GSPSIVTS[αMeL]DVPT[Aib][αMeL]LQKILEQERAEKARQQATEAAEILAQV-NH2 [SEQ ID NO: 25]
- peptides displayed on MHC-II complexes [1]: no peptides displayed on MHC-II complexes
- immunogenicity compared with SEQ ID NO:54 [1]: substantial improvements in immunogenicity over a compound comprising SEQ ID NO:54
- T Cell Proliferation Assay: protein 7-10 donors with diverse MHC (CD4+ T cells): 0/9

- MAPPS Assay >10 donors with diverse MHC [1, 5]: 1/10
- MAPPS Assay >10 donors with diverse MHC [1, 6]: 10%
- Pre-existing Reactivity 90th percentile T2 inhibition >50 donors [2]: 14.3%
- AUC0-inf [3]: 15 µM·h
- CL/F [3]: 162 mL/day/kg
- Cmax [3]: 270 nM
- Tmax [3]: 24 h
- half-life [3]: 25.1 h
- clearance [4, 11]: 9.89 mL/day/kg
- half-life [4, 11]: 98.1 h
- clearance [4, 12]: 9.41 mL/day/kg
- half-life [4, 12]: 83.1 h
- half-life ([4]; both sexes, cynomolgus monkey, plasma, sc, 183 nmol/kg, single subcutaneous dose 183 nmol/kg, Mean): 136 h
- CL/F ([4]; both sexes, cynomolgus monkey, plasma, sc, 183 nmol/kg, single subcutaneous dose 183 nmol/kg, Mean, read-out: CL/F (converted)): 12.9 mL/day/kg
- Tmax ([4]; both sexes, cynomolgus monkey, plasma, sc, 183 nmol/kg, single subcutaneous dose 183 nmol/kg, Mean, read-out: Tmax): 60 h
- CL/F ([4]; both sexes, cynomolgus monkey, plasma, sc, 183 nmol/kg, single subcutaneous dose 183 nmol/kg, individual animal, read-out: CL/F (converted)): 12.5 mL/day/kg
- Tmax ([4]; both sexes, cynomolgus monkey, plasma, sc, 183 nmol/kg, single subcutaneous dose 183 nmol/kg, individual animal, read-out: Tmax): 72 h
- AUC0-inf ([4]; both sexes, cynomolgus monkey, plasma, sc, single subcutaneous dose 183 nmol/kg, Mean, read-out: AUC0-inf): 365 µM·h
- Cmax ([4]; both sexes, cynomolgus monkey, plasma, sc, single subcutaneous dose 183 nmol/kg, Mean, read-out: Cmax): 2000 nM
- AUC0-inf ([4]; both sexes, cynomolgus monkey, plasma, single intravenous dose 183 nmol/kg, Mean, read-out: AUC0-inf): 446 µM·h
- C0 ([4]; both sexes, cynomolgus monkey, plasma, single intravenous dose 183 nmol/kg, Mean, read-out: C0): 4740 nM
- AUC0-inf [4, 13]: 467 µM·h and 424 µM·h
- C0 [4, 13]: 4160 nM and 5320 nM
- CL [4, 13]: 10.3 mL/day/kg
- T1/2 [4, 13]: 113 h
- AUC0-inf [4, 14]: 387 µM·h and 342 µM·h
- CL/F [4, 14]: 13.2 mL/day/kg
- Cmax [4, 14]: 1720 nM and 2280 nM
- T1/2 [4, 14]: 182 h and 90.2 h
- Tmax [4, 14]: 48 h
Substance: [pGlu]GSPSGIVTS[αMeL]DVPT[Aib][αMeL]LQKILEQERAEKARQQAK([γGlu-AEEA-εLys-C20 diacid])EAAEILAQV-NH2 [SEQ ID NO: 22, Pyr-GSPSGIVTS αMeL DVPT Aib αMeL LQKILEQERAEKARQQAK(γE-(2-[2-(2-Amino-ethoxy)-ethoxy]-acetyl)-ϵK-CO-(CH2)18-CO2H)EAAEILAQV-NH2]
- peptides displayed on MHC-II complexes [1]: at least one peptide cluster on MHC-II complexes in a subset of donors
- immunogenicity compared with SEQ ID NO:54 [1]: substantial improvements in immunogenicity over a compound comprising SEQ ID NO:54
- T Cell Proliferation Assay: protein 7-10 donors with diverse MHC (CD4+ T cells): 0/9
